Holding throughout (assay type): in vivo
Assay [1] relates to Thrips palmi. As to the kind of experiment: Example 4: aubergines against Thrips palmi. Particulars: nymphs on leaves, (I-4) (240 SC + 0.2% rapeseed oil methyl ester) 0.0096 % a.s.; for Efficacy (% Abbott) 7 d after treatm. 3 / Efficacy (% Abbott) 14 d after treatm. 3 / Efficacy (% Abbott) 21 d after treatm. 3: Imidacloprid 0.01 % a.s.; for Efficacy (% Abbott) 4 d after treatm. 2: Imidacloprid (100 SL) 0.01 % a.s., three applications. The method, then:
Plots 10 m^2 in size which are planted with aubergines cv. “Dumaguete Long Purple” are treated, in three replications, against Thrips palmi. The application is effected with a knapsack sprayer which is operated with pressurized air. Here, the active substance Example (I-4) (240 SC), in a tank mix together with 0.2% a.s. rapeseed oil methyl ester […] and the commercial standard Imidacloprid (100 SL), is tested at the specified application rates. The water application rate is 400 l/ha. Three applications are carried out at intervals of 8 and 7 days, respectively.
The test is evaluated in each case 4 days after treatment 2 and 7, 14 and 21 days after treatment 3 by scoring the destruction of the nymphs on the leaves.

Assay [2] deals with Thrips palmi. As to the kind of experiment: Example 9: cucumbers against Thrips palmi. Particulars: for Efficacy (% Abbott) 3 d: 3 d after treatment 1, nymphs on leaves, Imidacloprid (100 SL) 100, (I-4) (240 SC + 0.2% rapeseed oil methyl ester) 72 g a.s./ha, two applications, interval 8 days; for Efficacy (% Abbott) 8 d: 8 d after treatment 1, Imidacloprid 100, (I-4) 72 g a.s./ha; for Efficacy (% Abbott) 11 d: 11 d after treatment 1, Imidacloprid 100, (I-4) 72 g a.s./ha; for Efficacy (% Abbott) 15 d: 15 d after treatment 1, Imidacloprid 100, (I-4) 72 g a.s./ha. The method, then: Plots approximately 10 m^2 in size which are planted with cucumbers are treated, in three replications, against Thrips palmi. The application is carried out with a knapsack sprayer which is operated with pressurized air. Here, the active substance Example (I-4) (240 SC), in a tank mix with 0.2% a.s. rapeseed oil methyl ester (500 EW) and the commercial standard Imidacloprid (100 SL), is applied at the specified application rates. The application is carried out with a water application rate of […]. Two applications are carried out at an interval of 8 days.
The test is evaluated 3, 8, 11 and 15 days after treatment 1 by scoring the destruction rate of the animals (nymphs) on the leaves.

For a further assay, the system named is Dalbulus maidis. Put plainly: Example 13: dwarf beans against Dalbulus maidis. Conditions: nymphs on leaves, all 96 g a.s./ha; for Efficacy (% Abbott) 7 d: 7 d after second treatment, 240 SC + 0.1% rapeseed oil methyl ester, Imidacloprid 200 SL; for Efficacy (% Abbott) 11 d: 11 d after second treatment. As to the method: Plots approx. 10 m^2 in size which are planted with dwarf beans cv. “Carioquinha” are treated, in three replications, against Dalbulus maidis. The application is carried out with a knapsack sprayer which is operated with pressurized air. Here, the active substances Example (I-4) (240 SC) and Example (I-9) (240 SC), in a tank mix with 0.1% a.s. rapeseed oil methyl ester (500 EW) and the commercial standard Imidacloprid (200 SL), are applied at the specified application rates. Two applications are carried out at an interval of 7 days, using a water application rate of 300 l/ha.
The test is evaluated 7 and 11 days after the second treatment by scoring the destruction rate of the animals (nymphs) on the leaves.

In the next assay the test system is Idioscopus clypealis. Put plainly: Example 14: mango tree against Idioscopus clypealis. Conditions: nymphs on infructescences; for Efficacy (% Abbott) 7 days after treatment 4 / Efficacy (% Abbott) 7 days after treatment 5: Imidacloprid 0.00025 %, (I-4) 0.0016 %, Pymetrozine 0.002 %; for Efficacy (% Abbott) 7 days after treatment 3: Imidacloprid (100 SL) 0.00025 %, (I-4) (240 SC + 0.2% rapeseed oil methyl ester) 0.0016 %, Pymetrozine (WP 25) 0.002 %. The method, then:
A mango tree which is approximately 14 years old is treated, in three replications, against Idioscopus clypealis. The application is carried out with a high-pressure sprayer. Here, the active substance Example (I-4) (240 SC), in a tank mix with 0.2% a.s. rapeseed oil methyl ester (500 EW) and the commercial standards Imidacloprid (100 SL) and Pymetrozine (WP 25), is tested at the specified application rates. The amount of spray mixture is 10 l/tree. Five treatments are carried out at intervals of 7, 14, 21 and 28 days.
The test is evaluated in each case 7 days after treatments 3 to 5 by scoring the destruction rate of the nymphs on the infructescences.

For assay [3], the system named is flea beetles (Phyllotreta sp.). Put plainly: Example 24: aubergines against flea beetles. Particulars: 7 d after the last of four treatments, larvae, Imidacloprid (100 SL) 100, (I-4) (100 OD) 70, Profenofos (500 EC) 500 g a.s./ha. The method, then:
Plots approx. 12 m^2 in size which are planted with aubergines cv. “DLP” are treated, in three replications, against flea beetles (Phyllotreta sp.). The application is carried out with a knapsack sprayer which is operated with pressurized air. Here, the active substance Example (I-4) (100 OD) and the commercial standards Imidacloprid (100 SL) and Profenofos (500 EC) are applied at the specified application rates. Four applications are carried out at intervals of 7, 8 and 10 days, with a water application rate of 750 l/ha.
The test is evaluated 7 days after the last treatment by scoring the destruction rate of the larvae on the plants.

The subject of a further assay is Phyllocnistis citrella. Put plainly: Example 27: orange trees against Phyllocnistis citrella. Conditions: larvae on shoots; for Efficacy (% Abbott) 7 d: 7 d after treatment, Imidacloprid (192 SC) 140, (I-4) (150 OD) 132 g a.s./ha; for Efficacy (% Abbott) 14 d: 14 d after treatment, Imidacloprid 140, (I-4) 132 g a.s./ha. The method, then:
Small orange trees on plots approximately 30 m^2 in size are treated, in four replications, against Phyllocnistis citrella. The application is carried out with a motor-operated knapsack sprayer. Here, the active substance Example (I-4) (150 OD) is tested against the commercial standard Imidacloprid (192 SC) at the specified rates. The water application rate is 935 l/ha.
The test is evaluated 7 and 14 days after the treatment by scoring the destruction rates of the larvae on the shoots in percent.

The next assay deals with Carpocapsa pomonella. Put plainly: Example 30: apple trees against Carpocapsa pomonella, fruit damage. Particulars: 14 days after treatment 2, Imidacloprid (200 SC) 0.015 %, (I-4) (150 OD) 0.015 %. As to the method:
Approx. 16-year-old apple trees cv. “Golden Delicious” are treated, in four replications, against Carpocapsa pomonella. The application is carried out with a spray diffuser. Here, the active substance Example (I-4) (150 OD) is applied in comparison with Imidacloprid (200 SC) at the specified application rates. Two applications are carried out at an interval of 16 days, with a water application rate of 1000 l/ha.
The test is evaluated 14 days after treatment 2 by scoring the fruit damage with the aid of the Abbott formula.

The structures appear in SMILES notation.

With `CCOC(=O)OC1=C(c2cc(C)ccc2C)C(=O)N[C@]12CC[C@@H](OC)CC2` [Example (I-4)], in the assay with Thrips palmi [1], the “Efficacy (% Abbott) 7 d after treatm. 3” value worked out at 75.0 % Abbott, the “Efficacy (% Abbott) 14 d after treatm. 3” value is listed as 82.8 % Abbott, the “Efficacy (% Abbott) 21 d after treatm. 3” value is recorded as 90.6 % Abbott and the “Efficacy (% Abbott) 4 d after treatm. 2” value was 82.9 % Abbott. In the assay on Thrips palmi [2], the “Efficacy (% Abbott) 3 d” value came to 64.5 % Abbott, the “Efficacy (% Abbott) 8 d” value is on record as 91.0 % Abbott, the “Efficacy (% Abbott) 11 d” value is reported as 80.4 % Abbott and the “Efficacy (% Abbott) 15 d” value amounted to 70.1 % Abbott. Also, in the assay on Dalbulus maidis, the “Efficacy (% Abbott) 7 d” value is reported as 73 % Abbott and the “Efficacy (% Abbott) 11 d” value came to 69 % Abbott. Further, in the assay with Idioscopus clypealis, the “Efficacy (% Abbott) 7 days after treatment 4” value is recorded as 98.1 % Abbott, the “Efficacy (% Abbott) 7 days after treatment 5” value is 99.4 % Abbott and the “Efficacy (% Abbott) 7 days after treatment 3” value came out at 54.7 % Abbott. In addition, the “Efficacy (% Abbott) 7 d” value in assay [3] turned out to be 89 % Abbott. Also, in the assay with Phyllocnistis citrella, the “Efficacy (% Abbott) 7 d” value came out at 97.9 % Abbott and the “Efficacy (% Abbott) 14 d” value is on record as 68.2 % Abbott. In the assay on Carpocapsa pomonella, the “Efficacy (% Abbott)” value turned out to be 73.7 % Abbott.

Turning to `O=[N+]([O-])NC1=NCCN1Cc1ccc(Cl)nc1` [Imidacloprid], in the assay on Thrips palmi [1], the “Efficacy (% Abbott) 7 d after treatm. 3” value was 75.0 % Abbott, the “Efficacy (% Abbott) 14 d after treatm. 3” value came to 62.1 % Abbott, the “Efficacy (% Abbott) 21 d after treatm. 3” value was 53.1 % Abbott and the “Efficacy (% Abbott) 4 d after treatm. 2” value is 82.9. % Abbott. Further, in the assay with Thrips palmi [2], the “Efficacy (% Abbott) 3 d” value is reported as 85.3 % Abbott, the “Efficacy (% Abbott) 8 d” value worked out at 85.5 % Abbott, the “Efficacy (% Abbott) 11 d” value was determined as 91.7 % Abbott and the “Efficacy (% Abbott) 15 d” value turned out to be 77.1 % Abbott. In addition, in the assay on Dalbulus maidis, the “Efficacy (% Abbott) 7 d” value worked out at 82 % Abbott and the “Efficacy (% Abbott) 11 d” value is 74 % Abbott. Further, in the assay with Idioscopus clypealis, the “Efficacy (% Abbott) 7 days after treatment 4” value turned out to be 82.2 % Abbott, the “Efficacy (% Abbott) 7 days after treatment 5” value is listed as 86.4 % Abbott and the “Efficacy (% Abbott) 7 days after treatment 3” value is recorded as 69.1 % Abbott. In assay [3], the “Efficacy (% Abbott) 7 d” value is recorded as 98 % Abbott. In the assay with Phyllocnistis citrella, the “Efficacy (% Abbott) 7 d” value was found to be 91.7 % Abbott and the “Efficacy (% Abbott) 14 d” value amounted to 52.3 % Abbott. Moreover, the “Efficacy (% Abbott)” value in the assay with Carpocapsa pomonella stood at 26.3 % Abbott.

(Values after patent publication US20090298903A1, “USE OF TETRAMIC ACID DERIVATIVES FOR INSECT CONTROL” (priority 2006, published 2009).)
